Measured values: publication PMC5752595 (Molecular cancer therapeutics, 2017)

How the values were obtained:
Test in all cases: in vitro kinase assay
[1] = molecular target: AMPK; assay type: biochemical, Homo sapiens; settings: read-out: Ceritinib
[2] = molecular target: RSK2 (Homo sapiens, UniProt P51812); assay type: biochemical
[3] = molecular target: FER (Homo sapiens, UniProt P16591); assay type: biochemical
[4] = molecular target: CAMKK2 (Homo sapiens, UniProt Q96RR4); assay type: biochemical
[5] = molecular target: OSR1 (Homo sapiens, UniProt O95747); assay type: biochemical
[6] = molecular target: RSK1 (Homo sapiens, UniProt Q15418); assay type: biochemical
RSK1, sequence (Q15418 whole entry): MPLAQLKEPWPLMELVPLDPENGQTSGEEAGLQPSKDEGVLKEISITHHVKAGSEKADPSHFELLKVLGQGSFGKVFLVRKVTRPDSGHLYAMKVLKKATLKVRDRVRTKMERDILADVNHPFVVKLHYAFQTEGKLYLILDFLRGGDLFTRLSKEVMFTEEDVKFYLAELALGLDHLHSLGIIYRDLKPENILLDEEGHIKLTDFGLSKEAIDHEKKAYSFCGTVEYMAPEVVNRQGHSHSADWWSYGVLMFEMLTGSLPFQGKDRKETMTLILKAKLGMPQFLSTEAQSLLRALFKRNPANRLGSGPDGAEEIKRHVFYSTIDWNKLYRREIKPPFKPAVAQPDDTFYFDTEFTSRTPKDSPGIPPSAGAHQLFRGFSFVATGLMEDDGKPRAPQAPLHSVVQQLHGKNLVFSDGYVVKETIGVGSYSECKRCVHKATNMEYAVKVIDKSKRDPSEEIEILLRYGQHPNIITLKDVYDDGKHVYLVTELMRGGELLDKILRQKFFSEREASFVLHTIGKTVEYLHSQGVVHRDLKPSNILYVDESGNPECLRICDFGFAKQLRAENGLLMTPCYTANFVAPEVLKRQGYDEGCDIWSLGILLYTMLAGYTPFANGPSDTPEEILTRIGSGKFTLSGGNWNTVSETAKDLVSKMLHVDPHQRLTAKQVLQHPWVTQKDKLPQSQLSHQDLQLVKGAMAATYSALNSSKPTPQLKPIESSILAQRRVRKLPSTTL

OSR1, sequence (O95747 2-527): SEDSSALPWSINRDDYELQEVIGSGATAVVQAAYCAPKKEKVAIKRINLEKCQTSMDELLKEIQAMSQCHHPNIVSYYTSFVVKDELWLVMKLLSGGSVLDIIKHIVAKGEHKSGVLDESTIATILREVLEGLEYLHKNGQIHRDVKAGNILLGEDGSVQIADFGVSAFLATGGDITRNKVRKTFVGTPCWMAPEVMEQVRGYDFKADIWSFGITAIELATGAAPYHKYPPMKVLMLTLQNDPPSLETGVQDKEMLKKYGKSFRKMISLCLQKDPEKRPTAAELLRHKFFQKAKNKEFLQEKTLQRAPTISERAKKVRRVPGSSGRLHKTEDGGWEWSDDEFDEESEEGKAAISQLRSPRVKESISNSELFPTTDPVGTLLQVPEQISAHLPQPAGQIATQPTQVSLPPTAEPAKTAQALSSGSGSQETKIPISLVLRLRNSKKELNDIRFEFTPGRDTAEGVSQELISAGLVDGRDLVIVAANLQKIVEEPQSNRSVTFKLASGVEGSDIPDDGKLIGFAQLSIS
FER, sequence (P16591 whole entry): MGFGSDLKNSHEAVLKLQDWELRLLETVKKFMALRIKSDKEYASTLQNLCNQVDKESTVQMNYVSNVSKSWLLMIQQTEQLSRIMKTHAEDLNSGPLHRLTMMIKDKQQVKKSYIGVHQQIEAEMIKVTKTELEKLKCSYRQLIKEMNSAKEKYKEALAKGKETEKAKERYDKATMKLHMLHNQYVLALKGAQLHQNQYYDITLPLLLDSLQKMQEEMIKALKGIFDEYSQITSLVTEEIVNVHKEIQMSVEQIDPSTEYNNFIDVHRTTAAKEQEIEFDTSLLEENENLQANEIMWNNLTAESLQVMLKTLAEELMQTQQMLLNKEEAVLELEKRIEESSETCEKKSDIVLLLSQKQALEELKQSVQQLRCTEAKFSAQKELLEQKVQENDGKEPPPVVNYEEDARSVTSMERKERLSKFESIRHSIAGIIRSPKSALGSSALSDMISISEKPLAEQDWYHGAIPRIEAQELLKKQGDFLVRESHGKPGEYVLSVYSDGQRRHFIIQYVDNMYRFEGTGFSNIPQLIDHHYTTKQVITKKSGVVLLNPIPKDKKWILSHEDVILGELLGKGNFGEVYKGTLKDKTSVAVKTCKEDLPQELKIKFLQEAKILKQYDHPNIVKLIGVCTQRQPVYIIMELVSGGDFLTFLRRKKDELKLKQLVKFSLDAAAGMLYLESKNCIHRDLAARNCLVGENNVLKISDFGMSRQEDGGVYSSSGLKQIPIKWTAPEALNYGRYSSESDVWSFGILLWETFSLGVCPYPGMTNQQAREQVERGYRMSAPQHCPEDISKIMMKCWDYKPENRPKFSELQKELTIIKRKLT
RSK2, sequence (P51812 whole entry): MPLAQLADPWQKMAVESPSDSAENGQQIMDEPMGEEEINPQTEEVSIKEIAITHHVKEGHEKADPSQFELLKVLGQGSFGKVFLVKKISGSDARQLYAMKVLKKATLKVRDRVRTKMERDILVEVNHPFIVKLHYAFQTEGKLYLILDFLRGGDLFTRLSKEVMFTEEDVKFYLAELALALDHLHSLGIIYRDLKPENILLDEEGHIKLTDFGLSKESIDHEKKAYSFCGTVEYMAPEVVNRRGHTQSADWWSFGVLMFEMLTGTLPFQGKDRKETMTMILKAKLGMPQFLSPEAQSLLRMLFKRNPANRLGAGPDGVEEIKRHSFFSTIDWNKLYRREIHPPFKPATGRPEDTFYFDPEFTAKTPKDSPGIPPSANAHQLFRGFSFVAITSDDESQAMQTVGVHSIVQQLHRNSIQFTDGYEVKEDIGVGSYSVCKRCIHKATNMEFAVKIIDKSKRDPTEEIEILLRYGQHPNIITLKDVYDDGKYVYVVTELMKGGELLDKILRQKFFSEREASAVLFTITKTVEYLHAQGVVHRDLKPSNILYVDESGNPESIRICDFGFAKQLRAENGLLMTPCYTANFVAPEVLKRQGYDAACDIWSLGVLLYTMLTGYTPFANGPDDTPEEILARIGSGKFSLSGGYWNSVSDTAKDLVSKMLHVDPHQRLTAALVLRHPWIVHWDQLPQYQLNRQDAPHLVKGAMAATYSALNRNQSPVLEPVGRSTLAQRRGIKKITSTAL
CAMKK2, sequence (Q96RR4 2-588): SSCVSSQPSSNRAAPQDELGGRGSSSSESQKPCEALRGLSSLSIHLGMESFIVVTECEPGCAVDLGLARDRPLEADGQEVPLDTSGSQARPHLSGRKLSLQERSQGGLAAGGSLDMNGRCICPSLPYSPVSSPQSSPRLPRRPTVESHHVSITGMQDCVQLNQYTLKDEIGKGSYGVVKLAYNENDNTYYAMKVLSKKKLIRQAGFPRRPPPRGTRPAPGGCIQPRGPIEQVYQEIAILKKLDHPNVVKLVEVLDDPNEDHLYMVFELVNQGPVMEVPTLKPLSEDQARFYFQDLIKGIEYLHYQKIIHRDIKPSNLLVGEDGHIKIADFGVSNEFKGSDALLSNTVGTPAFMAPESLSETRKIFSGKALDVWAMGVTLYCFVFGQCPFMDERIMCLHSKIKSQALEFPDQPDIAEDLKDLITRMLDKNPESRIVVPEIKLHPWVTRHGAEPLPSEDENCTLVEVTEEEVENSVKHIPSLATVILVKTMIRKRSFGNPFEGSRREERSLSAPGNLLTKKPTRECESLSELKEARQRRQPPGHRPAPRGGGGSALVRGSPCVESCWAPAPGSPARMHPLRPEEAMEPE

IC50 [1]: 2360 nM
IC50 [2]: 418 nM
IC50 [3]: 11.7 nM
IC50 [4]: 75.3 nM
IC50 [5]: 881 nM
IC50 [6]: 966 nM
Structure (SMILES): Cc1cc(Nc2ncc(Cl)c(Nc3ccccc3S(=O)(=O)C(C)C)n2)c(OC(C)C)cc1C1CCNCC1 [ceritinib]
